Experimental data from US20080182805A1, “O-GlcNAcase-specific inhibitor and substrate engineered by the extension of the N-Acetyl moiety” (The Gov. of the U.S.A., as represented by the Secretary, …, priority 2007, published 2008).

Key:
O-GlcNAcase = biological target: T1, O-GlcNAcase (Homo sapiens, UniProt O60502); test: Inhibition of O-GlcNAcase measured with nonselective fluorogenic substrate (3); type: biochemical; conditions: fluorescence λex=485 nm, λem=535 nm
T1 construct: made in house
T1 sequence (O60502 1-916): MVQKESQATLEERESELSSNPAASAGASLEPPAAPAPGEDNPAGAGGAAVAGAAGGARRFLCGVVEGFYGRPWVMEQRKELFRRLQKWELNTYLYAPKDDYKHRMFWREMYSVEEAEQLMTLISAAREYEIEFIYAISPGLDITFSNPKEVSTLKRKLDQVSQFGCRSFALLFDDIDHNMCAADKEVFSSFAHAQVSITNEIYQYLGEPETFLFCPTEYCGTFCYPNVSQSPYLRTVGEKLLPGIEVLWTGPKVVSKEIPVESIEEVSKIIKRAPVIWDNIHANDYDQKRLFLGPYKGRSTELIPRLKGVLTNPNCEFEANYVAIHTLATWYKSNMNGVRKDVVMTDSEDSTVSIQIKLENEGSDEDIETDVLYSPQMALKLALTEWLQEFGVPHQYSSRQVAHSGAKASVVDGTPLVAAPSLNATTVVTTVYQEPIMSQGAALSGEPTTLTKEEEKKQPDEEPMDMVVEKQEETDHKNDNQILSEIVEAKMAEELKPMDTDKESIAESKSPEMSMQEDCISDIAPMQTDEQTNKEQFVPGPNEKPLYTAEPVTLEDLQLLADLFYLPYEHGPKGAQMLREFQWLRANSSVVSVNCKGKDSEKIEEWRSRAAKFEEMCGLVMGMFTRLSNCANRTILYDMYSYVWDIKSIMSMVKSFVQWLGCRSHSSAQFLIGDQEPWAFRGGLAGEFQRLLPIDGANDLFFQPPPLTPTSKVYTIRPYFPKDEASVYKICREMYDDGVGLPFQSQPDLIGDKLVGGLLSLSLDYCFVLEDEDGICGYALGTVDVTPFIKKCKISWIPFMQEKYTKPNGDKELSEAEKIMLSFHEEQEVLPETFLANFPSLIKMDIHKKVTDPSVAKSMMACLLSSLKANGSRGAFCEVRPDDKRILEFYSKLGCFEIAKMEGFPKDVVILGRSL
Experimental: (§1) The analysis of (2) was accomplished using previously reported methods.^9,11 For the determination of the inhibitory selectivity of both PUGNAc (1) and 2 at O-GlcNAcase, HEX A, and HEX B, the nonselective fluorogenic substrate (3) was utilized. The level of inhibition was determined based upon the quantification of fluorescence measured in the absence and presence of both PUGNAc (1) and (2) (intensity of fluorescence was measured at λex=485 nm at λem=535 nm). The results are compiled in FIG. 2. The analysis of (4) as a highly specific substrate for O-GlcNAcase activity was performed by the parallel treatment of O-GlcNAcase and HEX A with varying concentrations of (4) over a 45 min incubation period and the quantification of the resulting fluorescence. The results are compiled in FIG. 3.

fat cells = conditions: cited from earlier work
HEX B = biological target: T2, HEX B (Homo sapiens, UniProt P07686); test: Inhibition of HEX B measured with nonselective fluorogenic substrate (3); type: biochemical; conditions: fluorescence λex=485 nm, λem=535 nm
T2 sequence (P07686 122-556): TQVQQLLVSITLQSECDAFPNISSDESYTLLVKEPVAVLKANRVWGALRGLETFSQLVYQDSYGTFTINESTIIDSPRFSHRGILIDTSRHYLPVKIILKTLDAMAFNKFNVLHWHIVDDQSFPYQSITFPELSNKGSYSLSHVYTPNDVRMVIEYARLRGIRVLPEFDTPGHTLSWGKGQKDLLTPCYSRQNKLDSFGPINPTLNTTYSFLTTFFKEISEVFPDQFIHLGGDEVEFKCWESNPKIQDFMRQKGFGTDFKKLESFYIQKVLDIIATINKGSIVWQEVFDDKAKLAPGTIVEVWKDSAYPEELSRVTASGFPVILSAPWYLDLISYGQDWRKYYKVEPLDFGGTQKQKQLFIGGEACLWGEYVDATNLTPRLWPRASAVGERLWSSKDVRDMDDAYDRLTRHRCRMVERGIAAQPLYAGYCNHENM
Experimental: as §1

HEX A = biological target: T3, HEX A (Homo sapiens, UniProt P06865+P07686); test: Inhibition of HEX A measured with nonselective fluorogenic substrate (3); type: biochemical; conditions: for inhibition of HEX A: fluorescence λex=485 nm, λem=535 nm
T3 sequence (P06865 89-529): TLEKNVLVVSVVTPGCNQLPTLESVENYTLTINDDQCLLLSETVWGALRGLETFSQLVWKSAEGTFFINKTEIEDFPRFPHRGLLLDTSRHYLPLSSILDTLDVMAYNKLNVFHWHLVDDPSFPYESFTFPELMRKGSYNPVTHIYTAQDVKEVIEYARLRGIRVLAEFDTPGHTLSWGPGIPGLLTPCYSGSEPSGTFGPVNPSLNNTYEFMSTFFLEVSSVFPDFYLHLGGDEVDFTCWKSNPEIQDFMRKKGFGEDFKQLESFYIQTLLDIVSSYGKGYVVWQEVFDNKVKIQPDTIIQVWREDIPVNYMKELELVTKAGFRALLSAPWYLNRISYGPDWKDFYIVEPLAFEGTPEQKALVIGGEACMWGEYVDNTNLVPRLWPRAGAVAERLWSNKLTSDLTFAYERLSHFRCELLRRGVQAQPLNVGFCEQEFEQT
T3 sequence (P07686 122-556): T2 sequence (P07686 122-556)
Experimental: as §1

inhibition of HEX B (HEX B)	inhibition of HEX A (HEX A)	concentration up to which selectivity (no inhibition) was verified against HEX A (HEX A)	SMILES	inhibition of O-GlcNAcase (O-GlcNAcase)	effect on insulin resistance in fat cells (fat cells)
potently inhibit	potently inhibit	–	CC(=O)N[C@H]1/C(=N/OC(=O)Nc2ccccc2)O[C@H](CO)[C@@H](O)[C@@H]1O [PUGNAc, O-(2-acet-amido-2-deoxy-D-glucopyranosylidene)amino-N-phenylcarbamate]	potently inhibit	induces insulin resistance
total loss of inhibitory activity	total loss of inhibitory activity	> 30 µM	CCCCC(=O)N[C@H]1/C(=N/OC(=O)Nc2ccccc2)O[C@H](CO)[C@@H](O)[C@@H]1O [compound 2]	slightly decreases the inhibitory potency	–
